Results as given in patent US20250382297A1, “INHIBITORS OF FGFR2 AND FGFR3 AND USES THEREOF” (Insilico Medicine IP Limited, priority 2022, published 2025).
pIC50: −log10 of the molar value. Read-outs that look alike come from different tables or passages of the source.

Tests used:
[1] = biological target: FGFR2 (Homo sapiens (Human), UniProt P21802); experiment: FGFR biochemical assay (LanthaScreen TR-FRET kinase assay), FGFR2
Description: (§1) Convert Ratio values to percent inhibition values (Percent inhibition=(max−sample Ratio)/(max−min)*100) where “min” means the Ratio of no enzyme control and “max” means the Ratio of DMSO control. • Data are analyzed and curve fitting is performed by XLFit Excel add-in version 5.4.0.8. The IC50 calculation equation is: Y=Bottom+(Top-Bottom)/(1+ (IC50/X)^HillSlope.

[2] = biological target: FGFR1 (Homo sapiens (Human), UniProt P11362); experiment: FGFR biochemical assay (LanthaScreen TR-FRET kinase assay), FGFR1
Description: as §1

[3] = biological target: FGFR3 (Homo sapiens (Human), UniProt P22607); experiment: FGFR biochemical assay (LanthaScreen TR-FRET kinase assay), FGFR3
Description: as §1

[4] = read-out: FGFR2 IC50, * incubation at room temperature for 60 minutes before addition of substrate solution, ATP 22 μM, FGFR2 0.01 nM
[5] = read-out: FGFR3 IC50, * incubation at room temperature for 60 minutes before addition of substrate solution, ATP 35 μM, FGFR3 0.1 nM

Sequence of FGFR2 (P21802 22-821): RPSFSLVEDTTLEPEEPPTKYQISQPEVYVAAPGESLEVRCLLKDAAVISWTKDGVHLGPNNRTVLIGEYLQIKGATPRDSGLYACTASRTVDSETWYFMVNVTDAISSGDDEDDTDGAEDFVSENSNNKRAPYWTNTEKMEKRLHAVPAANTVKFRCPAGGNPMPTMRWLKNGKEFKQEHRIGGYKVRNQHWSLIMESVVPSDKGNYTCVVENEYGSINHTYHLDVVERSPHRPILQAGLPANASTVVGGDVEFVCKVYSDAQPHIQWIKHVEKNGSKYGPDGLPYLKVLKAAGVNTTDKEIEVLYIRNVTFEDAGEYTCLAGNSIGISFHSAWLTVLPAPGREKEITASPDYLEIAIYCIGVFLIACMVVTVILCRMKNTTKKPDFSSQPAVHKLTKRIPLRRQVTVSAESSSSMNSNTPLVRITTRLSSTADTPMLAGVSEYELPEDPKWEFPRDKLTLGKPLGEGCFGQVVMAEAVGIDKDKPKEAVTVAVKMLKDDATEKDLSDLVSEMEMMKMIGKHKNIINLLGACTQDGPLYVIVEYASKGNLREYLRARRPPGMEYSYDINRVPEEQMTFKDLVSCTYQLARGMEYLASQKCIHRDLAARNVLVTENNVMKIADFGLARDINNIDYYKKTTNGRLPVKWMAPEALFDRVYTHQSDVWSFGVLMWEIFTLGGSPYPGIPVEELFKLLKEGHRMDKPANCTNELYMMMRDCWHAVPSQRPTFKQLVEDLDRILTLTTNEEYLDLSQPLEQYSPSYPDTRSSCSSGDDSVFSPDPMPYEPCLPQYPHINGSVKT
Sequence of FGFR1 (P11362 22-822): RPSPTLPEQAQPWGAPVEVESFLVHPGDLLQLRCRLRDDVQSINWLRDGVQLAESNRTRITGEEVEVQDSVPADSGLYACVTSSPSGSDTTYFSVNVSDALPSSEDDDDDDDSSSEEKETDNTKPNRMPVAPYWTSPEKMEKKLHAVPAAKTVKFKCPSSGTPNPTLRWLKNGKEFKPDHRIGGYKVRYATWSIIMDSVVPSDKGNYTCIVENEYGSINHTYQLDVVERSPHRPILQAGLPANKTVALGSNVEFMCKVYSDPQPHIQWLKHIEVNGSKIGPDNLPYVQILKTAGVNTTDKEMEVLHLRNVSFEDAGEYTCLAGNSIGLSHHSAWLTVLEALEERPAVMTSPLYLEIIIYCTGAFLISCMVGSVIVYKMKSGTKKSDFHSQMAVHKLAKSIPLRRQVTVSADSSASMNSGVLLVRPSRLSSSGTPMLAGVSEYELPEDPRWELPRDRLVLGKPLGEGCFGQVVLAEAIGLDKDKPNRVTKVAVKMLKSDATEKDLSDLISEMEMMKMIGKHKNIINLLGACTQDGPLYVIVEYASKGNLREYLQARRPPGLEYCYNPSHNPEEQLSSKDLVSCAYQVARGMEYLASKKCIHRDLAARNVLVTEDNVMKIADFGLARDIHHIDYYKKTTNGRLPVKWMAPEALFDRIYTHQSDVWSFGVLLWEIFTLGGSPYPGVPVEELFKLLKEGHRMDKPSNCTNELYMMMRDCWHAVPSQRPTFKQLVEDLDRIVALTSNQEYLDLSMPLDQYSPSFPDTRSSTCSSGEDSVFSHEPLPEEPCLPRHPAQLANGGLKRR
Sequence of FGFR3 (P22607 23-806): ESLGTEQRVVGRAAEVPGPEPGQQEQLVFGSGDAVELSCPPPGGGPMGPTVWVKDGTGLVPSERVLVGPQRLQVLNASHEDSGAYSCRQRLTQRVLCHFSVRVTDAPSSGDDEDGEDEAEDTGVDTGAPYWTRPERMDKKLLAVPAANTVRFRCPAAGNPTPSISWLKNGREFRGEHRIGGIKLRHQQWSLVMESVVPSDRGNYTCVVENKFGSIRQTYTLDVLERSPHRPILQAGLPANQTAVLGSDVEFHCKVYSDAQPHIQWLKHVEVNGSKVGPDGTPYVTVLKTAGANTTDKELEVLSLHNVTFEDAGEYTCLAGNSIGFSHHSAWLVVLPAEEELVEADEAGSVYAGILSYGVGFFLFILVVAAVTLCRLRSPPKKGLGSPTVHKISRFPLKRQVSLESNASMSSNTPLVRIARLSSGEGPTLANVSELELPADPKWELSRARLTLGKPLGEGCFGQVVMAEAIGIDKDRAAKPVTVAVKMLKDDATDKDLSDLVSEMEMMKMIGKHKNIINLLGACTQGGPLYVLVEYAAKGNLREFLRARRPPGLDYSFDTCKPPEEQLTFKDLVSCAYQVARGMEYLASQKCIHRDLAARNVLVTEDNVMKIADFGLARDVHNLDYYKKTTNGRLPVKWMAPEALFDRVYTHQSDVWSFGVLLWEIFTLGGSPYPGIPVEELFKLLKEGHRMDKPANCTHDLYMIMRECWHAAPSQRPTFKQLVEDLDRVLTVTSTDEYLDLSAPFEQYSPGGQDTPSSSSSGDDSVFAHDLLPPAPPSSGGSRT

Row | SMILES | pIC50 [1, 4] | pIC50 [2] | pIC50 [3] | pIC50 [3, 5] | pIC50 [1] | pIC50 ([2]; read-out: FGFR1 IC50, * incubation at room temperature for 60 minutes before addition of substrate solution, ATP 28 μM, FGFR1 0.01 nM)
1 | C=C(F)C(=O)Nc1ccc(-c2c(-c3ccc(Oc4nccc(C)n4)c(F)c3)c(C(N)=O)c3cc(C)ncn23)cc1 [Example 85, 6-(3-fluoro-4-((4-methylpyrimidin-2-yl)oxy)phenyl)-7-(4-(2-fluoroacrylamido)phenyl)-3-methylpyrrolo[1,2-c]pyrimidine-5-carboxamide] | > 8.00 | 6.00 to 7.00 | 7.00 to 8.00 |  |  | 
2 | C=C(F)C(=O)Nc1ccc(-c2c(-c3ccc(Oc4nccc(C)n4)c(F)c3)c(C(N)=O)c3cc(-c4cnn(C)c4)ncn23)cc1 [Example 86, 6-(3-fluoro-4-((4-methylpyrimidin-2-yl)oxy)phenyl)-7-(4-(2-fluoroacrylamido)phenyl)-3-(1-methyl-1H-pyrazol-4-yl)pyrrolo[1,2-c]pyrimidine-5-carboxamide] | > 8.00 | 7.00 to 8.00 | 7.00 to 8.00 |  |  | 
3 | C=C(F)C(=O)Nc1ccc(-c2c(-c3ccc(Oc4nccc(C)n4)c(F)c3)c(C(N)=O)c3cc(C)cnn23)cc1 [Example 87, 6-(3-fluoro-4-((4-methylpyrimidin-2-yl)oxy)phenyl)-7-(4-(2-fluoroacrylamido)phenyl)-3-methylpyrrolo[1,2-b]pyridazine-5-carboxamide] | > 8.00 | 7.00 to 8.00 | 7.00 to 8.00 |  |  | 
4 | C=C(F)C(=O)Nc1ccc(-c2c(-c3ccc(Oc4nccc(C)n4)c(F)c3)c(C(N)=O)c3cc(-c4cnn(C)c4)ncn23)c(F)c1 [Example 91, 6-(3-fluoro-4-((4-methylpyrimidin-2-yl)oxy)phenyl)-7-(2-fluoro-4-(2-fluoroacrylamido)phenyl)-3-(1-methyl-1H-pyrazol-4-yl)pyrrolo[1,2-c]pyrimidine-5-carboxamide] | > 8.00 | 7.00 to 8.00 |  | > 8.00 |  | 
5 | C=C(F)C(=O)Nc1ccc(-c2c(-c3ccc(Oc4nccc(C)n4)c(F)c3)c(C(N)=O)c3cc(-c4cnn(C)c4)ncn23)c(C)c1 [Example 92, 6-(3-fluoro-4-((4-methylpyrimidin-2-yl)oxy)phenyl)-7-(4-(2-fluoroacrylamido)-2-methylphenyl)-3-(1-methyl-1H-pyrazol-4-yl)pyrrolo[1,2-c]pyrimidine-5-carboxamide] | > 8.00 | 7.00 to 8.00 |  | > 8.00 |  | 
6 | C=C(F)C(=O)Nc1ccc(-c2c(-c3ccc(Oc4nccc(C)n4)c(F)c3)c(C(N)=O)c3ccc(C)nn23)cc1 [Example 93, 6-(3-fluoro-4-((4-methylpyrimidin-2-yl)oxy)phenyl)-7-(4-(2-fluoroacrylamido)phenyl)-2-methylpyrrolo[1,2-b]pyridazine-5-carboxamide] |  | 6.00 to 7.00 | 7.00 to 8.00 |  | 7.00 to 8.00 | 
7 | C=C(F)C(=O)Nc1ccc(-c2c(-c3ccc(Oc4nccc(C)n4)c(F)c3)c(C(N)=O)c3ccc(C)nn23)c(C)c1 [Example 94, 6-(3-fluoro-4-((4-methylpyrimidin-2-yl)oxy)phenyl)-7-(4-(2-fluoroacrylamido)-2-methylphenyl)-2-methylpyrrolo[1,2-b]pyridazine-5-carboxamide] | > 8.00 | 7.00 to 8.00 | 7.00 to 8.00 |  |  | 
8 | C=C(F)C(=O)N1CCc2cc(-c3c(-c4ccc(Oc5nccc(C)n5)c(F)c4)c(C(N)=O)c4ccc(C)nn34)ccc21 [Example 95, 6-(3-fluoro-4-((4-methylpyrimidin-2-yl)oxy)phenyl)-7-(1-(2-fluoroacryloyl)indolin-5-yl)-2-methylpyrrolo[1,2-b]pyridazine-5-carboxamide] |  |  | 6.00 to 7.00 |  | 7.00 to 8.00 | < 6.00
9 | C=C(F)C(=O)N1CCc2cc(-c3c(-c4ccc(Oc5nccc(C)n5)c(F)c4)c(C(N)=O)c4ccc(C)nn34)c(C)cc21 [Example 96, 6-(3-fluoro-4-((4-methylpyrimidin-2-yl)oxy)phenyl)-7-(1-(2-fluoroacryloyl)-6-methylindolin-5-yl)-2-methylpyrrolo[1,2-b]pyridazine-5-carboxamide] | > 8.00 | 7.00 to 8.00 |  | > 8.00 |  | 
